Laboratory results published in US12653856B2, “Gynostemma pentaphyllum tea or Gynostemma pentaphyllum tea extract containing gypenoside L and gypenoside LI and antiobesity use thereof” (BIONIC TRADING CORPORATION, priority 2021, dated 2026).
Marks after values point to notes of the source that are not given here.

Tested on: male ICR mice on high-fat feed
Assay: Body fat and body weight reduction in mice given high-fat feed
Type: in vivo, mouse
Conditions: extracts 300 mg/kg
Source text: As experimental animals, 4-week-old male ICR mice were purchased from Orient Bio and acclimated for a week. Each group consisted of 10 animals. For a normal diet group (G1) and high-fat diet groups (G2 to G6), normal feed (energy ratio (kcal %); protein:carbohydrate:fat=20:70:10) or high-fat feed (energy ratio (kcal %); protein:carbohydrate:fat=20:20:60) purchased from Research Diets, Inc. (New Brunswick, NJ, USA) was provided, respectively. The feed and water were allowed freely. The specific compositions of the normal feed and the high-fat feed are described in Table 6. The test substance was administered orally at regular intervals for 8 weeks by dissolving in physiological saline (G3 to G6). For G1 and G2, physiological saline containing no test substance was administered orally. The experimental animal breeding room was maintained at 12-hour lighting cycles under the condition of 23±3° C., 50 t 10% relative humidity and 10-15 ventilations/hour. The animal experiment was conducted in accordance with the regulations of the Hallym University Institutional Animal Care and Use Committee (Hallym 2018-31). The experimental animals were divided into […]: normal group (G) to which normal feed was given for 6 weeks; control group (G2) to which high-fat feed was given; G3 to which high-fat feed was given and 300 mg/kg of the Gynostemma pentaphyllum tea extract of Example was administered; G4 to which 300 mg/kg of the Gynostemma pentaphyllum tea extract of Comparative Example was administered; G5 to which 300 mg/kg of the Gynostemma pentaphyllum tea extract of Comparative Example 2 was administered; G6 to which 300 mg/kg of the Gynostemma pentaphyllum tea extract of Comparative Example 3 was administered; […] The composition of the test groups is described specifically in Table 7. Initial body weight, final body weight, total body weight gain, feed intake, body fat percentage and feed efficiency ratio (FER) were measured while providing the feed specified in 6-2 to each test group for 8 weeks. Specifically, the body weight was measured using a digital scale once a week at the same time. The feed efficiency ratio (FER) was calculated by the following equation. The result of investigating the initial body weight, final body weight, total body weight gain, feed intake, body fat percentage and feed efficiency ratio for 8 weeks is given in Table 8. Feed efficiency ratio (FER)=body weight gain (g)/feed intake (g) [Equation]

[1] = high-fat feed, 8 weeks oral, orlistat 30 mg/kg

CCCCCCCCCCC[C@@H](C[C@@H]1OC(=O)[C@H]1CCCCCC)OC(=O)[C@H](CC(C)C)NC=O [Orlistat, orlistat]
Initial body weight (baseline, high-fat feed ICR mice, orlistat 30 mg/kg oral): 21.7 ± 0.2 g | Feed efficiency ratio (FER) (body weight gain (g)/feed intake (g), high-fat feed, 8 weeks oral, orlistat 30 mg/kg): 0.126 ± 0.005 | Body fat percentage (%) [1]: 36.6 ± 0.7 % | Body weight gain (%) [1]: 70.97* % | Final body weight [1]: 37.1 ± 0.6 g | Total body weight gain [1]: 15.4 ± 0.2 g | Total feed intake [1]: 122.4 ± 0.3 g
